Measured values from patent publication US20070299072A1, “KV1.5 POTASSIUM CHANNEL INHIBITORS” (Wyeth, priority 2006, published 2007).

What was measured:
Format in all cases: cell-based
L-type calcium channels = assay: FLIPR L-type Calcium Channel Assay (calcium influx in HL-1 cells after KCl); conditions: read-out: L-type Ca2+ IC50
Procedure: HL-1 cells expressing endogenous L-type calcium channels are removed from culture flasks using trypsin, plated on fibronectin/gelatin-coated, clear-bottomed, black-walled 96-well microplates in Claycomb media (JRH Biosciences #51800) containing 10% fetal bovine serum, 4 mM L-glutamine, and 10 μM norepinephrine, and grown to confluency overnight. The next day, growth medium is aspirated from confluent cell monolayers and replaced with 100 μL per well Tyrode's solution (in mM: 130 NaCl, 4 KCl, 1.8 CaCl2, 1.0 MgCl2, 20 HEPES, 10 glucose, pH 7.35) and 50 μL per well FLIPR Calcium Assay kit, component A (#R-8033, Molecular Devices Corporation) and incubated for 60 min. in a 5% CO2 37° C. incubator. 50 μL per well test compounds are added to the plates and further incubated for 15 min. in a 5% CO2 37° C. incubator. All final solutions contain the anion exchange inhibitor, probenecid (2.5 mM). The 96-well plates are then placed in the center position of the FLIPR 1 (Fluorometric Imaging Plate Reader, Molecular Devices Corporation). Cell monolayers in each well are simultaneously illuminated at 488 nm with an Argon ion laser, and fluorescence emission is monitored using a 510-570 nm bandpass filter and a cooled CCD camera. To depolarize the plasma membrane and activate L-type calcium channels, 50 μL per well of 20 mM KCl (final concentration) are dispensed simultaneously to all 96 wells using the FLIPR's automatic 96-well pipettor. Fluorescence measurements are captured for 5 min. following KCl addition. Calcium influx, expressed as % control, is calculated for each concentration of test compound and concentration-response curves and IC50 values are generated using GraphPad Prism 4.0.

Kv1.5 = target: T1, Kv1.5 (Homo sapiens, UniProt P22460); assay: Kv1.5 Patch Clamp EP (whole cell patch clamp; single point at 1 μM and IC50); conditions: for IC50: concentration response; for inhibition at 1 µM: single point at 1.0 μM, Kv1.5 stably over expressed in HEK or LTK- cells
T1 construct: expressed in transfected cells; host or cells: HEK or LTK- cells
T1 sequence (P22460 whole entry): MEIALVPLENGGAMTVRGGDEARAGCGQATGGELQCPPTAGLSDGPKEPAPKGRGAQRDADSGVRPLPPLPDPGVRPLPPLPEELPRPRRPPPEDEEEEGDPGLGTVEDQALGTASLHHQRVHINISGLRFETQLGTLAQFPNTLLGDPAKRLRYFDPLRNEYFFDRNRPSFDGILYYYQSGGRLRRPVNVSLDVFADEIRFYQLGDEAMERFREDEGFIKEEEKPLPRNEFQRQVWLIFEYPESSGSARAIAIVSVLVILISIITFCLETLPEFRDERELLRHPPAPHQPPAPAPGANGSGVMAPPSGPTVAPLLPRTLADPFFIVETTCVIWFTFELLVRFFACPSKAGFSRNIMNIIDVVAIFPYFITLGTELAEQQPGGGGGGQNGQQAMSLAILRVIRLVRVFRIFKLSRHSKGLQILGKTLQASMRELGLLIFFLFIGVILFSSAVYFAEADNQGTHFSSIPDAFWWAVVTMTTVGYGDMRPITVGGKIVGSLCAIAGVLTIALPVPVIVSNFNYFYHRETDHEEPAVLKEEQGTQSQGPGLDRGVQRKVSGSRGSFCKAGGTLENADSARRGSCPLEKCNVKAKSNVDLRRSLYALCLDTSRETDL
Procedure: The external solution is standard Tyrodes solution. […] Inhibition was measured at the end of the 1 second pulses and expressed relative to controls. Initial Kv1.5 inhibition is estimated by single point determinations done at 1 μM.

HERG = target: T2, HERG (Homo sapiens, UniProt Q12809); assay: HERG Patch Clamp EP (whole cell patch clamp, tail currents; single point at 10 μM and IC50); conditions: for IC50: concentration response; for inhibition at 10 µM: human, HEK cells stably overexpressing HERG, single point at 10 μM, HERG in HEK cells, read-out: HERG % Inhib. @ 10 μM
T2 construct: expressed in transfected cells; host or cells: HEK cells
T2 sequence (Q12809 whole entry): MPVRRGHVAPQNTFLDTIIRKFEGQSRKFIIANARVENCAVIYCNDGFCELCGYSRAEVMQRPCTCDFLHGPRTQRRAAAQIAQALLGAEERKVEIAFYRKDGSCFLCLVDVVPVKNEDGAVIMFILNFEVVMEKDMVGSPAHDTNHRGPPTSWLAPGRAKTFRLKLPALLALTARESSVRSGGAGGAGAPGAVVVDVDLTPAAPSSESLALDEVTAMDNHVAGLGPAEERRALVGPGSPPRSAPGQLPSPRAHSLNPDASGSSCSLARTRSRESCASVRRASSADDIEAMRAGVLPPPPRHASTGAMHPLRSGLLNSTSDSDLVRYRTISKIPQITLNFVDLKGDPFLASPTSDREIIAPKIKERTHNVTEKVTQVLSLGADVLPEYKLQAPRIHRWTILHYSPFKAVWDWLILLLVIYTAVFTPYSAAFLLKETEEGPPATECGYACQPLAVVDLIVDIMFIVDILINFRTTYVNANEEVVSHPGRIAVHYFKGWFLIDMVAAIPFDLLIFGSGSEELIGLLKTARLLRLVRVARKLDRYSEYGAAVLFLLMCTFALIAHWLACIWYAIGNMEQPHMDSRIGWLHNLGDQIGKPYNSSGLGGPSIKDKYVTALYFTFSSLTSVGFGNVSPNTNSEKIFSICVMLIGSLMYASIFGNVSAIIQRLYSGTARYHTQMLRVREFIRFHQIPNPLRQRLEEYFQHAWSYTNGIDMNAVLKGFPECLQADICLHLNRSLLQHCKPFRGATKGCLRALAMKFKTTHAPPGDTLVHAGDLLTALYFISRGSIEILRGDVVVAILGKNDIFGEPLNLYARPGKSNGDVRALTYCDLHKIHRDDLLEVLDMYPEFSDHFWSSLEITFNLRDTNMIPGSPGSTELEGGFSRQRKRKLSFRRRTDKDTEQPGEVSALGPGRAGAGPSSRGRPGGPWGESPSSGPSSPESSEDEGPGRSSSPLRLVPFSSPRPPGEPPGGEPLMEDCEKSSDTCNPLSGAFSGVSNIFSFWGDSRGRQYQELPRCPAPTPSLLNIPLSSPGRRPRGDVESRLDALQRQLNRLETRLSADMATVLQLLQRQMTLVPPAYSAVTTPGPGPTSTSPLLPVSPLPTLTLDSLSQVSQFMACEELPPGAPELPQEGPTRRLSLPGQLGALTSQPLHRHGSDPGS
Source text: The external solution is standard Tyrodes solution.

| IC50 (L-type calcium channels) | IC50 (Kv1.5) | inhibition at 1 µM (Kv1.5) | Structure (SMILES) | IC50 (HERG) | inhibition at 10 µM (HERG) |
| --- | --- | --- | --- | --- | --- |
| 8 µM | 0.151 µM | 94% | COc1ccc(CCN2C(=O)C3(CCN(C(=O)C4CC4)CC3)N(C)C2c2ccc(C3CC3)cc2)cc1 (centres unmarked) [Compound 4, 8-Cyclopropylcarbonyl-2-(4-cyclopropylphenyl)-3-[2-(4-methoxyphenyl)ethyl]-1-methyl-1,3,8-triaza-spiro[4.5]decan-4-one] | 9.5 µM | 64% |
| 36 µM | 0.514 µM | 84% | COc1ccc(CCN2C(=O)C3(CCN(C(C)=O)CC3)N(C)C2c2ccc(C3CC3)cc2)cc1 (centres unmarked) [Compound 5, 8-Acetyl-2-(4-cyclopropylphenyl)-3-[2-(4-methoxyphenyl)ethyl]-1-methyl-1,3,8-triaza-spiro[4.5]decan-4-one] | 31 µM | 8% |
| 13 µM | – | 68% | COc1ccc(CCN2C(=O)C3(CCN(C(=O)C4CC4)CC3)N(C)C2c2ccc(OC(F)F)cc2)cc1 (centres unmarked) [Compound 6, 8-Cyclopropylcarbonyl-2-(4-difluoromethoxyphenyl)-3-[2-(4-methoxyphenyl)-ethyl]-1-methyl-1,3,8-triazaspiro[4.5]decan-4-one] | – | 85% |
| 9 µM | 0.579 µM | 87% | COc1ccc(CCN2C(=O)C3(CCN(C(N)=O)CC3)N(C)C2c2ccc(C3CC3)cc2)cc1 (centres unmarked) [Compound 7, 2-(4-Cyclopropylphenyl)-3-[2-(4-methoxyphenyl)ethyl]-1-methyl-4-oxo-1,3,8-triaza-spiro[4.5]decane-8-carboxylic acid amide] | 23.5 µM | 12% |
| 11 µM | 0.35 µM | 91% | CNC(=O)N1CCC2(CC1)C(=O)N(CCc1ccc(OC)cc1)C(c1ccc(C3CC3)cc1)N2C (centres unmarked) [Compound 8, 2-(4-Cyclopropylphenyl)-3-[2-(4-methoxyphenyl)ethyl]-1-methyl-4-oxo-1,3,8-triaza-spiro[4.5]decane-8-carboxylic acid methyl amide] | – | 25% |
| 6.2 µM | – | 96% | COc1ccc(CCN2C(=O)C3(CCN(C(=O)N4CCCCC4)CC3)N(C)C2c2ccc(C3CC3)cc2)cc1 (centres unmarked) [Compound 9, 2-(4-Cyclopropylphenyl)-3-[2-(4-methoxyphenyl)ethyl]-1-methyl-8-(piperidine-1-carbonyl)-1,3,8-triaza-spiro[4.5]decan-4-one] | – | 60% |
| – | – | 29% | COc1ccc(CCN2C(=O)C3(CCN(C(N)=O)CC3)N(C)C2c2ccc(C(F)(F)F)cc2)cc1 (centres unmarked) [Compound 11, 2-(4-Trifluoromethylphenyl)-3-[2-(4-methoxyphenyl)ethyl]-1-methyl-4-oxo-1,3,8-triaza-spiro[4.5]decane-8-carboxylic acid amide] | – | 33% |
| – | – | 46% | COc1ccc(CCN2C(=O)C3(CCN(C(N)=O)CC3)N(C)C2c2ccc(OC(F)F)cc2)cc1 (centres unmarked) [Compound 13, 2-(4-Difluoromethoxyphenyl)-3-[2-(4-methoxyphenyl)ethyl]-1-methyl-4-oxo-1,3,8-triaza-spiro[4.5]decane-8-carboxylic acid amide] | – | 57% |
| 2.5 µM | – | 84% | CCNC(=O)N1CCC2(CC1)C(=O)N(CCc1ccc(OC)cc1)C(c1ccc(C(C)(C)C)cc1)N2C (centres unmarked) [Compound 15, 2-(4-tert-Butylphenyl)-3-[2-(4-methoxyphenyl)ethyl]-1-methyl-4-oxo-1,3,8-triaza-spiro[4.5]decane-8-carboxylic acid ethyl amide] | – | – |
| 5.3 µM | – | 97% | CCN(CC)C(=O)N1CCC2(CC1)C(=O)N(CCc1ccc(OC)cc1)C(c1ccc(C3CC3)cc1)N2C (centres unmarked) [Compound 19, 2-(4-Cyclopropylphenyl)-3-[2-(4-methoxyphenyl)ethyl]-1-methyl-4-oxo-1,3,8-triaza-spiro[4.5]decane-8-carboxylic acid diethylamide] | – | – |
| 8.4 µM | – | 88% | COc1ccc(CCN2C(=O)C3(CCN(C(=O)N(C)OC)CC3)N(C)C2c2ccc(C3CC3)cc2)cc1 (centres unmarked) [Compound 28, 2-(4-Cyclopropylphenyl)-N-methoxy-3-[2-(4-methoxyphenyl)ethyl]-N,1-dimethyl-4-oxo-1,3,8-triazaspiro[4.5]decane-8-carboxamide] | – | – |
| 7.4 µM | – | 92% | COc1ccc(CCN2C(=O)C3(CCN(C(=O)OC(C)C)CC3)N(C)C2c2ccc(C3CC3)cc2)cc1 (centres unmarked) [Compound 36, Isopropyl 2-(4-cyclopropylphenyl)-3-[2-(4-methoxyphenyl)ethyl]-1-methyl-4-oxo-1,3,8-triazaspiro[4.5]decane-8-carboxylate] | – | – |
| 4.4 µM | – | 86% | CCN(CC)c1ccc(C2N(CCc3ccc(OC)cc3)C(=O)C3(CCN(C(=O)OC(C)(C)C)CC3)N2C)cc1 (centres unmarked) [Compound 39, tert-Butyl 2-(4-diethylaminophenyl)-3-[2-(4-methoxyphenyl)ethyl]-1-methyl-4-oxo-1,3,8-triazaspiro[4.5]decane-8-carboxylate] | – | – |
| 20 µM | – | 75% | CN1C(c2ccc(C3CC3)cc2)N(CCCc2ccccc2)C(=O)C12CCN(C(=O)OC(C)(C)C)CC2 (centres unmarked) [Compound 47, 2-(4-Cyclopropylphenyl)-1-methyl-4-oxo-3-(3-phenylpropyl)-1,3,8-triazaspiro-[4.5]decane-8-carboxylic acid tert-butyl ester] | – | – |
| 10 µM | – | 73% | CNC(=O)N1CCC2(CC1)C(=O)N(CCCc1ccccc1)C(c1ccc(C3CC3)cc1)N2C (centres unmarked) [Compound 51, 2-(4-Cyclopropylphenyl)-1-methyl-4-oxo-3-(3-phenylpropyl)-1,3,8-triazaspiro-[4.5]decane-8-carboxylic acid methylamide] | – | – |
| 3.6 µM | – | 80% | COc1ccc(CCN2C(=O)C3(CCN(C(=O)OC(C)(C)C)CC3)N(C)C2c2ccc(C3CC3)cc2)cc1 (centres unmarked) [Compound 65, 2-(4-cyclopropylphenyl)-3-[2-(4-methoxyphenyl)ethyl]-1-methyl-4-oxo-1,3,8-triaza-spiro[4.5]decane-8-carboxylic acid tert-butyl ester] | – | – |
| – | – | 7% | COc1ccc(CCN2C(=O)C3(CCN(C(=N)N)CC3)N(C)C2c2ccc(C3CC3)cc2)cc1 (centres unmarked) [Compound 84, 2-(4-cyclopropylphenyl)-3-[2-(4-methoxyphenyl)ethyl]-1-methyl-4-oxo-1,3,8-triazaspiro[4.5]decane-8-carboximidamide] | – | – |
| – | – | 4% | CN=C(N)N1CCC2(CC1)C(=O)N(CCc1ccc(OC)cc1)C(c1ccc(C3CC3)cc1)N2C (centres unmarked) [Compound 86, 2-(4-cyclopropylphenyl)-3-[2-(4-methoxyphenyl)ethyl]-N′,1-dimethyl-4-oxo-1,3,8-triazaspiro[4.5]decane-8-carboximidamide] | – | – |
| – | – | 5% | COc1ccc(C2NC3(CCN(C(=O)OC(C)(C)C)CC3)C(=O)N2CCCc2ccccc2)cc1 (centres unmarked) [Compound 87, tert-butyl 2-(4-methoxyphenyl)-4-oxo-3-(3-phenylpropyl)-1,3,8-triazaspiro[4.5]decane-8-carboxylate] | – | – |
| – | – | 13% | COc1ccc(CCN2C(=O)C3(CCN(C(=O)C4CC4)CC3)NC2c2ccc(C(C)(C)C)cc2)cc1 (centres unmarked) [Compound 88, 2-(4-tert-butylphenyl)-8-(cyclopropylcarbonyl)-3-[2-(4-methoxyphenyl)ethyl]-1,3,8-triazaspiro[4.5]decan-4-one] | – | – |
| – | – | 8% | COc1ccc(CCN2C(=O)C3(CCN(C(=O)[C@H]4CCCN4)CC3)N(C)C2c2ccc(C3CC3)cc2)cc1 (stereo partly drawn) [Compound 90, 2-(4-cyclopropylphenyl)-3-[2-(4-methoxyphenyl)ethyl]-1-methyl-8-D-prolyl-1,3,8-triazaspiro[4.5]decan-4-one] | – | – |
| – | – | 21% | COc1ccc(CCN2C(=O)C3(CCNCC3)NC2c2ccc(C3CC3)cc2)cc1 (centres unmarked) [Compound 93, 2-(4-cyclopropylphenyl)-3-[2-(4-methoxyphenyl)ethyl]-1,3,8-triazaspiro[4.5]decan-4-one] | – | – |
| – | – | 12% | CCS(=O)(=O)N1CCC2(CC1)NC(c1ccc(C(C)(C)C)cc1)N(CCc1ccc(OC)cc1)C2=O (centres unmarked) [Compound 94, 2-(4-tert-butylphenyl)-8-(ethylsulfonyl)-3-[2-(4-methoxyphenyl)ethyl]-1,3,8-triazaspiro[4.5]decan-4-one] | – | – |
| – | – | 16% | COc1ccc(CCN2C(=O)C3(CCN(C(=O)OC(C)(C)C)CC3)N(C)C2Cc2ccc(C(C)(C)C)cc2)cc1 (centres unmarked) [Compound 97, tert-butyl 2-(4-tert-butylbenzyl)-3-[2-(4-methoxyphenyl)ethyl]-1-methyl-4-oxo-1,3,8-triazaspiro[4.5]decane-8-carboxylate] | – | – |
